± gives the expanded uncertainty stated by the source.
Assay: xn = mol fraction of the nth substance listed
Conditions: 101 kPa, Liquid

C1CCCCC1 [cyclohexane] + CCO
Conditions	mass density, 293.15 K [kg/m3]	mass density, 298.15 K [kg/m3]	mass density, 303.15 K [kg/m3]	speed of sound, 293.15 K [m/s]	speed of sound, 298.15 K [m/s]	speed of sound, 303.15 K [m/s]	viscosity, 293.15 K [mPa·s]	viscosity, 298.15 K [mPa·s]	viscosity, 303.15 K [mPa·s]
x1 = 0.0473	787 ± 0.46	782.65 ± 0.47	778.29 ± 0.48	1162 ± 3	1144 ± 2	1127 ± 2	1.148 ± 0.028	1.046 ± 0.026	0.956 ± 0.024
x1 = 0.096	784.97 ± 0.47	780.6 ± 0.47	776.2 ± 0.48	1165 ± 3	1147 ± 2	1129 ± 2	1.102 ± 0.027	1.009 ± 0.025	0.922 ± 0.023
x1 = 0.2043	781.33 ± 0.47	776.87 ± 0.48	772.37 ± 0.49	1174 ± 3	1155 ± 3	1135 ± 2	1.051 ± 0.026	0.954 ± 0.024	0.875 ± 0.022
x1 = 0.3028	779.4 ± 0.48	774.86 ± 0.48	770.28 ± 0.49	1184 ± 3	1164 ± 3	1144 ± 2	1.005 ± 0.025	0.918 ± 0.023	0.838 ± 0.021
x1 = 0.3979	778.2 ± 0.48	773.6 ± 0.48	768.95 ± 0.49	1195 ± 3	1174 ± 3	1153 ± 3	0.978 ± 0.024	0.893 ± 0.023	0.818 ± 0.021
x1 = 0.5027	777.4 ± 0.48	772.73 ± 0.49	768 ± 0.49	1208 ± 3	1186 ± 3	1164 ± 3	0.954 ± 0.024	0.87 ± 0.022	0.796 ± 0.021
x1 = 0.5939	776.98 ± 0.48	772.26 ± 0.49	767.49 ± 0.49	1219 ± 3	1196 ± 3	1174 ± 3	0.934 ± 0.024	0.853 ± 0.022	0.781 ± 0.02
x1 = 0.7051	776.79 ± 0.48	772.03 ± 0.49	767.22 ± 0.49	1232 ± 3	1209 ± 3	1186 ± 3	0.915 ± 0.023	0.836 ± 0.021	0.769 ± 0.02
x1 = 0.8055	776.89 ± 0.48	772.11 ± 0.49	767.28 ± 0.49	1245 ± 3	1221 ± 3	1197 ± 3	0.908 ± 0.023	0.833 ± 0.021	0.769 ± 0.02
x1 = 0.9041	777.3 ± 0.48	772.5 ± 0.49	767.8 ± 0.49	1258 ± 3	1235 ± 3	1211 ± 3	0.923 ± 0.023	0.846 ± 0.022	0.778 ± 0.02
x1 = 0.9534	777.74 ± 0.48	772.98 ± 0.49	768.18 ± 0.49	1267 ± 3	1242 ± 3	1218 ± 3	0.941 ± 0.024	0.862 ± 0.022	0.793 ± 0.02
x1 = 1	778.62 ± 0.48	773.92 ± 0.48	769.19 ± 0.49	1279 ± 3	1254 ± 3	1230 ± 3	0.968 ± 0.024	0.887 ± 0.022	0.816 ± 0.021

CCCCO [butan-1-ol] + C1CCCC1
x2 = 0
Conditions	mass density [kg/m3]	speed of sound [m/s]	viscosity [mPa·s]
293.15 K	809.5 ± 0.43	1257 ± 2	2.941 ± 0.068
298.15 K	805.75 ± 0.43	1240 ± 2	2.571 ± 0.06
303.15 K	801.8 ± 0.44	1224 ± 2	2.255 ± 0.053

C1CCCC1 [cyclopentane] + CCCO
Conditions	mass density, 293.15 K [kg/m3]	mass density, 298.15 K [kg/m3]	mass density, 303.15 K [kg/m3]	speed of sound, 293.15 K [m/s]	speed of sound, 298.15 K [m/s]	speed of sound, 303.15 K [m/s]	viscosity, 293.15 K [mPa·s]	viscosity, 298.15 K [mPa·s]	viscosity, 303.15 K [mPa·s]
x1 = 0.0461	800.15 ± 0.56	796.09 ± 0.57	791.98 ± 0.57	1219 ± 2	1202 ± 2	1184 ± 2	2.035 ± 0.049	1.809 ± 0.044	1.613 ± 0.04
x1 = 0.09	796.74 ± 0.57	792.61 ± 0.57	788.44 ± 0.58	1216 ± 2	1198 ± 2	1180 ± 2	1.859 ± 0.045	1.655 ± 0.04	1.479 ± 0.036
x1 = 0.1885	789.64 ± 0.58	785.36 ± 0.58	781.04 ± 0.59	1209 ± 2	1190 ± 2	1171 ± 2	1.571 ± 0.038	1.406 ± 0.035	1.275 ± 0.032
x1 = 0.2951	782.12 ± 0.59	777.69 ± 0.59	773.21 ± 0.6	1204 ± 2	1183 ± 2	1163 ± 2	1.284 ± 0.032	1.159 ± 0.029	1.052 ± 0.027
x1 = 0.4056	774.79 ± 0.6	770.22 ± 0.6	765.59 ± 0.61	1200 ± 2	1178 ± 2	1157 ± 2	1.057 ± 0.027	0.961 ± 0.025	0.875 ± 0.023
x1 = 0.5051	768.67 ± 0.6	763.96 ± 0.61	759.2 ± 0.62	1199 ± 2	1176 ± 2	1153 ± 2	0.867 ± 0.023	0.79 ± 0.021	0.725 ± 0.019
x1 = 0.61	762.67 ± 0.61	757.84 ± 0.62	752.96 ± 0.62	1199 ± 2	1175 ± 2	1152 ± 2	0.712 ± 0.019	0.656 ± 0.018	0.608 ± 0.017
x1 = 0.7109	757.16 ± 0.62	752.26 ± 0.63	747.29 ± 0.63	1200 ± 2	1176 ± 2	1152 ± 2	0.594 ± 0.016	0.553 ± 0.015	0.514 ± 0.014
x1 = 0.8225	751.67 ± 0.63	746.7 ± 0.63	741.66 ± 0.64	1206 ± 2	1181 ± 2	1156 ± 2	0.507 ± 0.014	0.476 ± 0.014	0.448 ± 0.013
x1 = 0.9134	747.4 ± 0.63	742.5 ± 0.64	737.43 ± 0.64	1214 ± 2	1188 ± 2	1163 ± 2	0.46 ± 0.013	0.434 ± 0.013	0.41 ± 0.012
x1 = 0.9532	745.94 ± 0.63	740.91 ± 0.64	735.84 ± 0.65	1219 ± 2	1193 ± 2	1168 ± 2	0.447 ± 0.013	0.422 ± 0.012	0.4 ± 0.012
x1 = 1	744.52 ± 0.63	739.55 ± 0.64	734.54 ± 0.65	1232 ± 2	1206 ± 2	1180 ± 2	0.439 ± 0.013	0.416 ± 0.012	0.394 ± 0.012

CCCO [propan-1-ol] + C1CCCC1
x2 = 0
Conditions	mass density [kg/m3]	speed of sound [m/s]	viscosity [mPa·s]
293.15 K	803.59 ± 0.56	1223 ± 2	2.159 ± 0.051
298.15 K	799.58 ± 0.57	1206 ± 2	1.915 ± 0.046
303.15 K	795.55 ± 0.57	1189 ± 2	1.713 ± 0.042

— the NIST ThermoML archive (doi:10.1016/j.jct.2006.06.008)
